Test results reported in patent US10980769B2, “Tiglien-3-one derivatives” (QBIOTICS PTY LTD, priority 2005, dated 2021).

Tests used:
Haemonchus contortus = experiment: NemaTOX (Ne) anthelmintic larval development bioassay
Description: NemaTOX (alternatively referred to herein as Ne) is an anthelmintic bioassay, applicable to all parasitic nematodes with free-living life cycle stages, and can be used as a screen to detect activity and define the species spectrum of compounds against parasitic nematodes and examine the impact of pre-existing resistance to other anthelmintic classes on potency. Haemonchus contortus was utilised for this assay.
The effect on larval development was determined in this assay by the method described by Gill et al. (1995) Int. J. Parasitol. 25: 463-470. Briefly, in this assay nematode eggs were applied to the surface of an agar matrix containing the test sample and allowed to develop through to the L3, infective stage (6 days). At this time the stage of larval development reached and any unusual features (deformity, paralysis, toxicity) were noted by microscopic examination.

Trichophyton rubrum = experiment: MycoTOX (Tr) antifungal bioassay; type: cell-based
Description: MycoTOX (alternatively referred to herein as Tr) is a non-chromogenic bioassay used to detect activity against filamentous fungal pathogens of plants and animals. The bioassay features a solid phase agar base into which the test compound has been incorporated. As the growth patterns of filamentous fungi are readily apparent on the agar surface the extent of mycelial growth, sporulation (if relevant to the species under investigation) and colour changes with maturation are measured.
MycoTOX, involves a fungus (spore suspension or mycelial fragments) being applied to the surface of an agar matrix containing the test chemical and allowed to grow for a period of up to a week (depending on species). The assay is monitored at two discrete times to identify key development phases in the life cycle (for example mycelial growth and extent of sporulation) and the active wells noted. The monitoring times are dependent on the fungal species under investigation.
The MycoTOX assays were carried out using Trichophyton rubrum. The MycoTOX test is alternatively referred to as Tr to indicate the use of Trichophyton rubrum.

[1] = system: NS1 murine myeloma cell line; experiment: CyTOX (Cy) chromogenic cytotoxicity bioassay; type: cell-based
Description: CyTOX (alternatively referred to herein as Cy) is a microtitre plate bioassay use to identify potential antitumour actives. CyTOX is a chromogenic bioassay with broad application to a wide range of tumour and non-tumour cell lines.
CyTOX features a liquid media into which the test compound has been incorporated together with a novel chromogen. As the cells grow and divide the chromogen is metabolised from purple in a single step process to a colourless metabolite. CyTOX was undertaken using NS1 murine myeloma cell line as a guide to mammalian cell toxicity.
Briefly, in CyTOX the cells were applied to the media containing the test chemical and allowed to grow for 72 hours. The assay was monitored at 24, 48 and 72 hours and the active wells identified.

Human melanoma SKMel-5 = experiment: Growth inhibition of cultured cells; type: cell-based
Description: (§1) Briefly, a range of tumour cells including mouse melanoma, human melanoma, mouse squamous cell carcinoma, human breast, human colon, human leukemia and human lung and normal human cells including normal human fibroblasts were seeded at 2-5,000 per microtitre well (96-well plate) in 10% FCS-RPMI 1640 culture medium, treated, and allowed to grow until the controls were nearly confluent (5-6 days). The wells were then washed twice with PBS, fix with ethanol for a minimum of 5 minutes and washed with water. SRB solution (50 μL of 0.4% in 1% acetic acid) was added and left at room temperature for a minimum of 15 minutes. The plate was washed rapidly with tap water and then twice with 1% acetic acid. After addition of 100 μL/well of 10 mM Tris base (unbuffered, pH>9), plates were left for a minimum of 5 minutes, then the absorbance was read at 564 nm on the ELISA reader, with a 3 second prior shaking. After subtraction of a blank (wells with no cells, absorbance typically about 0.04), growth inhibition was calculated as % of the untreated control and plotted against dose.
(§2) Briefly, a suspension of a range of tumour cells including mouse melanoma, human melanoma, mouse squamous cell carcinoma, human breast, human colon, human leukemia and human lung and normal human cells including normal human fibroblasts were seeded into round-bottom microtitre plates in 10% FCS-RPMI 1640 culture medium, treated and allowed to grow for 5-6 days. To measure cell growth, 20 μL of a combined MTS/PMS solution (Promega Cell ProliferationAssay Kit Cat #G5430) was added to each well of the 96 well assay plate. After 1-4 hours the plates were placed in the ELISA plate reader and the absorbance read at 490 nm. After subtraction of a blank (wells with no cells, absorbance typically about 0.4), growth inhibition was calculated as % of the untreated control and plotted against dose.

[2] = system: Mouse squamous cell carcinoma K-2; experiment: Growth inhibition of cultured cells; type: cell-based
Description: as §1, §2

mouse melanoma B16 = experiment: Growth inhibition of cultured cells; type: cell-based
Description: as §1, §2

LK-2 mouse SCC = experiment: Intralesional injection of LK-2 SCC tumours in mice; type: in vivo
Description: Squamous Cell Carcinoma (SCC) tumours were established by the same method as for topical treatment but were allowed to grow for 15 days before drug treatment. 7 μg EBI-46 in 20 μL, saline was injected into each of 3 sides of the tumour. Tumour size was measured with calipers at appropriate intervals.
Animal experiments were conducted under Queensland Institute of Medical Research (QIMR) Animal Ethics Committee approvals. The B16 mouse melanoma model was obtained by injecting 0.5 million B16 mouse melanoma cells subcutaneously into each of the 2 flanks of a male C57BL/6 mouse. The human tumour xenografts were obtained by injecting 2 million of the respective tumour cell line into each of 4 sites on the flanks of male nude mice (BALB/c background). EBI-46 was applied: (a) topically by dilution of a concentrated solution in acetone into an isopropanol gel, once a day for 3 days; (b) intralesionally by injection into the tumour of drug dissolved in 25% propylene glycol-0.1 M saline, (c) systemically by injection intraperitoneally in 25% propylene glycol in 0.1 M saline. Tumour size was measured with electronic callipers in mm and converted to volume (cubic mm) using the formula: Tumour volume=length×breadth×breadth/2. Results
A pilot study was conducted on 6 mm×6 mm LK-2 tumours established in nude mice. Approximately 50 μL of a solution of EB548 fractions (approximately 20 μg EBI-46 in the EB548-35 fraction) in saline containing 20% acetone were injected in 3 sites around the periphery of each lesion. This was only done once.
With PEG 400 delivery, 10 μg EBI-46 in 25 μL solution was injected (29 gauge) with a 0.5 mL insulin needle into a 7 mm×7 mm tumour, highly visible on the left flank of a nude mouse.

Solubility tests = type: physicochemical
Description: It requires a small amount of such solvents to form aqueous solutions. […] Higher solubilities may well be achieveable.

[3] = Table 6a, last well with activity, real value may be lower

Structure (SMILES): C/C=C(\C)C(=O)OC1C(C)C2(O)C(C3OC3(CO)C(O)C3(O)C(=O)C(C)=CC32)C2C(C)(C)C12OC(=O)C(C)CC (stereo not drawn) [EBI-46, 12-tigloyl-13-(2-methylbutanoyl)-6,7-epoxy-4,5,9,12,13,20-hexahydroxy-1-tiglian-3-one]
- Ne Titre (Haemonchus contortus): 2
- Ne LD99 (Haemonchus contortus; [3]): 31 pg/mL
- Tr Titre (Trichophyton rubrum): 0
- Cy Titre [1]: 8
- Cy LD99 [1, 3]: 7.8 pg/mL
- Concentration of EBI-46 at which growth inhibition was observed (Human melanoma SKMel-5): <100 ng/mL
- Concentration of EBI-46 at which growth inhibition was observed [2]: <100 ng/mL
- Concentration of EBI-46 at which growth inhibition was observed (mouse melanoma B16): =/<2 μg/mL
- tumour at 16 hours (LK-2 mouse SCC; 10 μg in 25 μL PEG 400 containing 10% ethanol, 7 mm × 7 mm tumour): tumour lump had largely gone
- time mouse remained tumour-free (LK-2 mouse SCC; 10 μg in PEG 400 containing 10% ethanol, single injection): over 9 months
- systemic toxicity or lung metastases on post mortem (LK-2 mouse SCC; intralesional 21 ug): There were no signs of
- tumour size (LK-2 mouse SCC; intralesional 21 ug (3 × 7 ug), 15-day established tumours): reduction of tumour size.
- solubility (Solubility tests; 5 μg/mL in 99.9% water): 100%
- solubility (Solubility tests; 50 μg/mL in 99% water): 100%
- solubility (Solubility tests; 450 μg/mL in 90% water): 100%
- solubility in vehicle (Solubility tests; 25% propylene glycol-saline, 250 μg/mL): no sign of insolubility
- solubility in vehicle (Solubility tests; PEG 400 containing 10% ethanol): freely soluble
- solubility in organic solvents (Solubility tests; acetone, alcohols and PEG 400): highly soluble
